Assay results published in patent US20240226234A1, “WNT5A PEPTIDES FOR THE TREATMENT OF ACUTE M[…]” (W[…], priority 2021, published 2024).
No end group written: not given here. *: point of attachment. For = O=C*

Legend:
Assay type in all cases: cell-based, human
[1] = system: HL60 cells; test: Cell cycle assay, HL60 cells; details: 72 h
Procedure: (§1) A panel of human myeloid leukemia cell lines (HL60, K562, KG1a, THP1 and U937) and HS-5 mesenchymal stromal cells lineage were cultured in Roswell Park Memorial Institute medium-1640 (RPMI; Sigma) containing 10% Fetal Bovine Serum (Gibco), glutamine (2 mM; Sigma), penicillin (100 μg/mL; Sigma), streptomycin (100 μg/mL; Sigma), and amphotericin B (0.25 μg/mL; Gibco). The cells were maintained in a humidified atmosphere at 37° C. and 5% CO2 and the experiments were performed when they reached exponential growth. For the assays, cells were seeded on a 24-well plate and treated or not with Foxy-5 for 72 hours.
Cells treated with Foxy or with vehicle were collected and fixed, at least, 24 hours in 70% ethanol. DNA was stained with a buffer containing iodide propidium (20 μg/mL; Sigma) and RNase A (10 μg/mL; Sigma). Cell fluorescence was detected with a FACSCalibur flow cytometer (BD). The proportions of cells in the cell cycle phases were analyzed by Modifit (Verify Software House Inc), according to DNA distributions.
As we observed a reduction in the leukemic proliferation after Foxy-5 treatment, we also analyzed the cell cycle phases. Leukemia cell lines were treated for 72 hours with Foxy-5, at doses of 50 μM and 100 μM, or vehicle, stained with the Piper buffer containing RNAse and iodeto propidium and then analyzed by flow cytometry.

[2] = system: U937 cells; test: Autophagy assay (acridine orange), U937 cells; details: U937, 2D culture, 72 h
Procedure: as §1
Cells treated with Foxy or with vehicle were collected and acids vesicles were measured by flow cytometry following staining with Acridine Orange (0.01 mg/mL; Sigma). Acquisition of cells was performed on a FACScalibur flow cytometer (BD) and analysis was carried out using the FlowJo software 4.
As autophagy is required for sustaining leukemia cell growth by induction of ROS production, we measured the levels of acidic granule formation by flow cytometry after Foxy-5 or vehicle treatment. […]

[3] = system: K562 cells; test: ROS production by flow cytometry, K562 cells; details: 72 h; for ROS production (MFI): K562, 2D culture on HS5 stromal cells; for ROS production (mean fluorescence intensity): K562, monoculture
Procedure: as §1
Cells treated with Foxy or with vehicle were collected and intracellular ROS generation was measured by flow cytometry following staining with DCFDA ([…]; Sigma). Acquisition of cells was performed on a FACScalibur flow cytometer (BD) and analysis was carried out using the FlowJo software.
Leukemia cell lines were treated for 72 h with Foxy-5, at doses of 50 and 100 μM, or vehicle, stained with DCFHA dye, and analyzed by flow cytometry.

[4] = system: K562 cells; test: Actin polymerization assay, K562 cells; details: K562, Foxy-5 100 μM 72 h
Procedure: (§2) F-actin polymerization was analyzed in treated leukemic cell lines using AlexaFluor 633-labeled phalloidin (A22284, Invitrogen) before and after CXCL12 stimulation. The cells were stimulated with CXCL12 (300 ng/ml; Peprotech) in serum-free media at 37 °C for 30 and 120 seconds. The reaction was stopped by adding 3 volumes of paraformaldehyde (3.7%) at room temperature for 10 min, then washed and permeabilized on ice. Cells were stained with 633-phalloidin (2 mg/mL). Flow cytometric data were analyzed using a FACS flow cytometer (BD) followed by FlowJo software analysis. The F-actin content obtained were normalized calculating the ratio between each stimulated cells-mean fluorescence intensity (MFI) values and the nonstimulated cells MFI from the basal levels of the control cells and expressed as fold change.
(§3) Therefore, we performed a flow cytometry analysis to evaluate whether Foxy-5 treatment would be able to disrupt actin polymerization. Leukemia cell lines were treated with Foxy-5 (100 μM) or vehicle during 72 hours, stimulated with CXCL12 (300 ng/ml) for 30 or 120 seconds, and stained with […] for detection of actin polymerization by flow cytometry. […] Thus, a significant reduction of actin polymerization was shown after Foxy-5 treatment when compared to untreated cells after 30 seconds of CXCL12 induction (P<. 001).

[5] = system: U937 cells; test: Actin polymerization assay, U937 cells; details: U937, Foxy-5 100 μM 72 h
Procedure: as §2, §3

[6] = CXCL12 300 ng/ml for 30 seconds
[7] = CXCL12 300 ng/ml for 120 seconds

Foxy-5: Formylated hexapeptide fragment of WNT5A: MDGCEL (SEQ. ID. NO. 3) with methionine in position 1 as N-formyl methionine; WNT5A-mimicking compound (For-MDGCEL; listed as Homo sapiens)
cells in G0/G1 cell cycle phase (average) ([1]; HL60, co-cultured with HS5 stromal cells, Foxy-5 50 μM): 53.47%
cells in G0/G1 cell cycle phase (average) ([1]; HL60, co-cultured with HS5 stromal cells, Foxy-5 100 μM): 70.68%
cells in G0/G1 cell cycle phase (average) ([1]; HL60, monoculture, Foxy-5 50 μM): 51.57%
cells in G0/G1 cell cycle phase (average) ([1]; HL60, monoculture, Foxy-5 100 μM): 53.02%
autophagy (acidic granule formation, acridine orange, average) ([2]; Foxy-5 50 μM): 9.40 (range 7.68-11.00) MFI
autophagy (acidic granule formation, acridine orange, average) ([2]; Foxy-5 100 μM): 6.30 (range 4.80-8.31) MFI
ROS production (MFI) ([3]; Foxy-5 50 μM): 126.00 (range 125.000-128.20) MFI
ROS production (MFI) ([3]; Foxy-5 100 μM): 98.25 (range 98.25-104.00) MFI
ROS production (mean fluorescence intensity) ([3]; Foxy-5 50 μM): 83.90 (range 75.80-88.40) MFI
ROS production (mean fluorescence intensity) ([3]; Foxy-5 100 μM): 68.75 (range 64.40-72.75) MFI
F-actin content following CXCL12 stimulation [4, 6]: 1.37 fold increase
F-actin content following CXCL12 stimulation [4, 7]: 1.31 fold increase
F-actin content following CXCL12 stimulation [5, 6]: 3.03 fold increase
F-actin content following CXCL12 stimulation [5, 7]: 1.26 fold
